Reference: ChEMBL document CHEMBL1201862, “PubChem BioAssay data set” (2004)
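All cell lines were grown in 96-well plates and treated with compound for 48 hours. The concentration for 50% growth inhibition is given as GI50.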 Calls of active or inactive are those of the source. Rule as the data show it: active = GI50 up to about 1.1 µM and inactive = higher.

Experiments:
Test in all cases: NCI anticancer screen, dose series, 48 h
SF-539 = tested on: SF-539
MDA-MB-231 = tested on: MDA-MB-231
UACC-62 = tested on: UACC-62
NCI-H23 = tested on: NCI-H23
RXF 393 = tested on: RXF 393
MCF7 = tested on: MCF7
CCRF-CEM = tested on: CCRF-CEM
OVCAR-5 = tested on: OVCAR-5
EKVX = tested on: EKVX
SK-OV-3 = tested on: SK-OV-3
HL-60 = tested on: HL-60
MOLT-4 = tested on: MOLT-4
786-0 = tested on: 786-0
U-251 = tested on: U-251
LOX IMVI = tested on: LOX IMVI
SK-MEL-28 = tested on: SK-MEL-28
SW-620 = tested on: SW-620
MDA-MB-435 = tested on: MDA-MB-435
MDA-N = tested on: MDA-N
LXFL 529 = tested on: LXFL 529

Row | SMILES | GI50 (SF-539) | GI50 (MDA-MB-231) | GI50 (UACC-62) | GI50 (NCI-H23) | GI50 (RXF 393) | GI50 (MCF7) | GI50 (CCRF-CEM) | GI50 (OVCAR-5) | GI50 (EKVX) | GI50 (SK-OV-3) | GI50 (HL-60) | GI50 (MOLT-4) | GI50 (786-0) | GI50 (U-251) | GI50 (LOX IMVI) | GI50 (SK-MEL-28) | GI50 (SW-620) | GI50 (MDA-MB-435) | GI50 (MDA-N) | GI50 (LXFL 529)
1 | Nc1ncnc2c1ccn2CC=C(CO)CO | > 100 µM (inactive) | > 100 µM (inactive) | > 100 µM (inactive) | > 100 µM (inactive) | > 100 µM (inactive) | > 100 µM (inactive) | > 100 µM (inactive) | > 100 µM (inactive) | > 100 µM (inactive) | > 100 µM (inactive) | > 100 µM (inactive) | > 100 µM (inactive) | > 100 µM (inactive) | > 100 µM (inactive) | > 100 µM (inactive) | > 100 µM (inactive) | > 100 µM (inactive) | > 100 µM (inactive) | > 100 µM (inactive) | –
2 | OCC(O)C(O)C(O)C(O)c1nnn[nH]1 (stereo not drawn) | > 100 µM (inactive) | – | > 100 µM (inactive) | > 100 µM (inactive) | – | – | > 100 µM (inactive) | > 100 µM (inactive) | > 100 µM (inactive) | > 100 µM (inactive) | > 100 µM (inactive) | > 100 µM (inactive) | > 100 µM (inactive) | > 100 µM (inactive) | > 100 µM (inactive) | – | > 100 µM (inactive) | – | – | > 100 µM (inactive)
3 | NCC(Cc1ccccc1)P(=O)(O)O (stereo not drawn) | > 100 µM (inactive) | > 100 µM (inactive) | > 100 µM (inactive) | > 100 µM (inactive) | > 100 µM (inactive) | > 100 µM (inactive) | > 100 µM (inactive) | > 100 µM (inactive) | > 100 µM (inactive) | > 100 µM (inactive) | > 100 µM (inactive) | > 100 µM (inactive) | > 100 µM (inactive) | > 100 µM (inactive) | > 100 µM (inactive) | > 100 µM (inactive) | > 100 µM (inactive) | > 100 µM (inactive) | > 100 µM (inactive) | –
4 | NC(=O)C1=CC2C3C=CC2(O)C(=O)OC3O1 (stereo not drawn) | 3.56 µM (inactive) | 7.64 µM (inactive) | 2.71 µM (inactive) | 2.91 µM (inactive) | 2.52 µM (inactive) | 3.28 µM (inactive) | 1.8 µM (inactive) | 22.8 µM (inactive) | 3.44 µM (inactive) | 13.5 µM (inactive) | 1.5 µM (inactive) | 1.88 µM (inactive) | 3.63 µM (inactive) | 8.59 µM (inactive) | 2.14 µM (inactive) | 2.34 µM (inactive) | 4.02 µM (inactive) | 3.27 µM (inactive) | 2.61 µM (inactive) | –
5 | O=c1[nH]c2ccc(CC(=S)N3CCN(c4ccccc4)CC3)cc2o1 | > 67.8 µM (inactive) | > 100 µM (inactive) | > 66.4 µM (inactive) | > 100 µM (inactive) | > 100 µM (inactive) | > 100 µM (inactive) | 71.3 µM (inactive) | > 100 µM (inactive) | 37.9 µM (inactive) | > 100 µM (inactive) | 6.18 µM (inactive) | > 80.7 µM (inactive) | > 90.2 µM (inactive) | 41.2 µM (inactive) | > 100 µM (inactive) | > 100 µM (inactive) | > 100 µM (inactive) | 54.5 µM (inactive) | > 49.9 µM (inactive) | –
6 | COC(=O)c1c/c(=N\NC(=O)CC(=O)Nc2ccccc2Cl)c2ccccc2o1 | > 100 µM (inactive) | – | > 100 µM (inactive) | > 100 µM (inactive) | – | – | – | > 100 µM (inactive) | > 100 µM (inactive) | > 100 µM (inactive) | > 100 µM (inactive) | > 100 µM (inactive) | > 100 µM (inactive) | > 100 µM (inactive) | > 100 µM (inactive) | > 100 µM (inactive) | > 100 µM (inactive) | – | – | > 100 µM (inactive)
7 | COc1cc(Br)c(/C=N\c2cccc3ccc(OS(=O)(=O)c4ccc([N+](=O)[O-])cc4)cc23)cc1OC | > 100 µM (inactive) | – | 29.4 µM (inactive) | 44.1 µM (inactive) | > 100 µM (inactive) | – | > 100 µM (inactive) | > 100 µM (inactive) | > 100 µM (inactive) | > 100 µM (inactive) | – | > 100 µM (inactive) | 75.7 µM (inactive) | > 100 µM (inactive) | 6.59 µM (inactive) | 28.6 µM (inactive) | > 100 µM (inactive) | – | – | 12.2 µM (inactive)
8 | NC(=O)NC(=O)c1cccc(NC(=O)CBr)c1 | < 0.0362 µM (active) | 0.0631 µM (active) | < 0.0175 µM (active) | < 0.0195 µM (active) | < 0.019 µM (active) | < 0.01 µM (active) | < 0.01 µM (active) | < 0.0204 µM (active) | 0.766 µM (active) | 0.0272 µM (active) | < 0.01 µM (active) | < 0.01 µM (active) | < 0.01 µM (active) | < 0.018 µM (active) | < 0.01 µM (active) | 1.44 µM (inactive) | < 0.01 µM (active) | < 0.0143 µM (active) | < 0.0134 µM (active) | –
